Consider eight molecules from patent publication US20170137410A1, “FUSED CYCLOALKYL-PYRIMIDINE COMPOUNDS AND USES THEREOF” (Medivation Technologies, Inc., priority 2014, published 2017).

Assay type in all cases: biochemical
The target in assay [1] is T1, activated IGF-1R (Homo sapiens, UniProt P08069).
T1 construct: purchased Millipore 14-802
Description: In vitro IGF-1R enzymatic assay (ADP-Glo). Conditions: ATP 100 μM. The protocol: (§1) Inhibition of IGF-1R and IR kinases by compounds described herein were tested. The IC50 values were measured in vitro using an ADP-Glo kinase assay Kit (Promega). For the IGF-1R assay, active recombinant IGF-1R (Millipore #14-802) was used at 1 ng/reaction, the substrate IGF-1R tide (Millipore #12-527) was used at 125 μM and ATP was used at 100 μM. For the IR assay, active recombinant IR (Millipore #14-803) was used at 1 ng/reaction, the substrate Axl tide (Millipore #12-516) was used at 125 μM and ATP at 50 μM. Kinase reactions in both assays were conducted at 30° C. for 20 min with increasing concentrations of the test compounds.
(§2) The assay results as the percent inhibition of binding are presented in Tables B2 and B3 for IGF-1R and IR respectively.

The target in assay [2] is T2, activated IR (Homo sapiens, UniProt P06213).
T2 construct: purchased Millipore 14-803
Kind of assay: In vitro IR enzymatic assay (ADP-Glo). Conditions: ATP 50 μM. As for the experimental part: as §1, §2

Assay [3] deals with T3, FLT3 (Homo sapiens, UniProt P36888).
T3 sequence (P36888 27-993): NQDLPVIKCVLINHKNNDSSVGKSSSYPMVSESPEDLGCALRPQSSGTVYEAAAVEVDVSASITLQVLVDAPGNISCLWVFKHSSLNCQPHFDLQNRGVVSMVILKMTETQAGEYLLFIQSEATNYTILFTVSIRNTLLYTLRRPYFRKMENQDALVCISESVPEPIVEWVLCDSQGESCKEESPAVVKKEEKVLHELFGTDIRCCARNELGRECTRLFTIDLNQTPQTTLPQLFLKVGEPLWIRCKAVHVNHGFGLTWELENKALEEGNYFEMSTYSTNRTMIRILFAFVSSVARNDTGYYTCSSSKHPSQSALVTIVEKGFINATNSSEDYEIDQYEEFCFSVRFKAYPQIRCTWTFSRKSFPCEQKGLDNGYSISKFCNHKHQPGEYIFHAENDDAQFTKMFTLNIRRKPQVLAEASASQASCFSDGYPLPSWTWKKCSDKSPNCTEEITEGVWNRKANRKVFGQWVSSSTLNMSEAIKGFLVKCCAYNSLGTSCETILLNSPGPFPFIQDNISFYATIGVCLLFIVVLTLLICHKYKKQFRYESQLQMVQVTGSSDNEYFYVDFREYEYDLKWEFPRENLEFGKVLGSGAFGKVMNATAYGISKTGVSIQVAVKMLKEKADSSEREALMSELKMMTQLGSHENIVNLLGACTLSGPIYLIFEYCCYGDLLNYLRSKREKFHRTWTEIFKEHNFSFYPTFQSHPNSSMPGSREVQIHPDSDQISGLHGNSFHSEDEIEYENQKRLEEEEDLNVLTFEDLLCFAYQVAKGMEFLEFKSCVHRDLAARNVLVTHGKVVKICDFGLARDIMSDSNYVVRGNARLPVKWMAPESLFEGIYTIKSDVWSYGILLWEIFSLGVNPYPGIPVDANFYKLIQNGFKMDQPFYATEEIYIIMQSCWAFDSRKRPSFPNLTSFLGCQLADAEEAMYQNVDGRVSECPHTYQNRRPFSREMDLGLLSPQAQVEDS
Kind of assay: HotSpot kinase assay against FLT3. To be noted: HotSpot 33P assay, ATP 10 μM. The protocol:
Kinase assays were performed using test compounds against a panel of FLT3 kinases: FLT3; FLT3 (D835Y); and FLT3 (ITD). Compounds were prepared as 10 mM stock solutions in DMSO prior to use in the assay. Each compound was tested at 10 concentrations with three-fold serial dilution starting at 1 μM against the three kinases. The control compound, staurosporine, was tested at 10 concentrations with four-fold serial dilution starting at 20 μM. IC50 values and curve fits were obtained using Prism (GraphPad Software). The screening was performed using the “HotSpot” assay platform. The assay measures the conversion of a peptide substrate to ^33P-labelled phosphorylated product. Briefly, specific kinase/substrate pairs along with required cofactors were prepared in reaction buffer. Specifically, the substrate was prepared in reaction buffer (20 mM Hepes, pH 7.5; 10 mM MgCl2; 1 mM EGTA; 0.02% Brij35; 0.02 mg/mL BSA; 0.1 mM Na3VO4; 2 mM DTT; 1% DMSO), followed by delivery of any required cofactor to the resulting substrate solution. The corresponding kinase was delivered into the substrate solution and the reaction mixture was mixed gently. Compound was delivered into the reaction mixture, followed 15-20 min later by addition of a mixture of ATP (Sigma, St. Louis Mo.) and ^33P ATP (specific activity 0.01 μCi/μL final; Perkin Elmer, Waltham, Mass.) to a final concentration of 10 μM to initiate the reaction. Reactions were carried out at RT for 120 min, followed by spotting of the reactions onto P81 ion exchange filter paper (Whatman #3698-915; Whatman Inc., Piscataway, N.J.). Unbound phosphate was removed by extensive washing of filters in 0.75% phosphoric acid. […] The percent of enzyme inhibition was calculated based on the percent of remaining kinase activity. IC50 values were determined.

Assay [4] addresses ABL1 (Homo sapiens, UniProt P00519). Kind of assay: HotSpot kinase assay against ABL1. Conditions: HotSpot 33P assay, ATP 10 μM-30 μM. The protocol:
(§3) The screening was performed using the “HotSpot” assay platform. The assay measures the conversion of a peptide substrate to ^33P-labelled phosphorylated product. Briefly, specific kinase/substrate pairs along with required cofactors were prepared in reaction buffer. Specifically, the substrate was prepared in reaction buffer (20 mM Hepes, pH 7.5; 10 mM MgCl2; 1 mM EGTA; 0.02% Brij35; 0.02 mg/mL BSA; 0.1 mM Na3VO4; 2 mM DTT; 1% DMSO), followed by delivery of any required cofactor to the resulting substrate solution. The corresponding kinase was delivered into the substrate solution and the reaction mixture was mixed gently. Compound was delivered into the reaction mixture, followed 15-20 minutes later by addition of a mixture of ATP (Sigma, St. Louis Mo.) and ^33P ATP (specific activity 0.01 μCi/μL final; Perkin Elmer, Waltham, Mass.) to a final concentration of 10 μM-30 μM to initiate the reaction. Reactions were carried out at RT for 120 min, followed by spotting of the reactions onto P81 ion exchange filter paper (Whatman #3698-915; Whatman Inc., Piscataway, N.J.). Unbound phosphate was removed by extensive washing of filters in 0.75% phosphoric acid. […] The percent of enzyme inhibition was calculated based on the percent of remaining kinase activity. IC50 values and curve fits were obtained using Prism (GraphPad Software).

Assay [5] deals with ABL2/ARG (Homo sapiens, UniProt P42684). Kind of assay: HotSpot kinase assay against ABL2/ARG. Conditions: HotSpot 33P assay, ATP 10 μM-30 μM. As for the experimental part:
as §3

Assay [6] concerns the target ROS/ROS1 (Homo sapiens, UniProt P08922). Kind of assay: HotSpot kinase assay against ROS/ROS1. Conditions: HotSpot 33P assay, ATP 10 μM-30 μM. The protocol:
as §3

T1 sequence (P08069 31-1367): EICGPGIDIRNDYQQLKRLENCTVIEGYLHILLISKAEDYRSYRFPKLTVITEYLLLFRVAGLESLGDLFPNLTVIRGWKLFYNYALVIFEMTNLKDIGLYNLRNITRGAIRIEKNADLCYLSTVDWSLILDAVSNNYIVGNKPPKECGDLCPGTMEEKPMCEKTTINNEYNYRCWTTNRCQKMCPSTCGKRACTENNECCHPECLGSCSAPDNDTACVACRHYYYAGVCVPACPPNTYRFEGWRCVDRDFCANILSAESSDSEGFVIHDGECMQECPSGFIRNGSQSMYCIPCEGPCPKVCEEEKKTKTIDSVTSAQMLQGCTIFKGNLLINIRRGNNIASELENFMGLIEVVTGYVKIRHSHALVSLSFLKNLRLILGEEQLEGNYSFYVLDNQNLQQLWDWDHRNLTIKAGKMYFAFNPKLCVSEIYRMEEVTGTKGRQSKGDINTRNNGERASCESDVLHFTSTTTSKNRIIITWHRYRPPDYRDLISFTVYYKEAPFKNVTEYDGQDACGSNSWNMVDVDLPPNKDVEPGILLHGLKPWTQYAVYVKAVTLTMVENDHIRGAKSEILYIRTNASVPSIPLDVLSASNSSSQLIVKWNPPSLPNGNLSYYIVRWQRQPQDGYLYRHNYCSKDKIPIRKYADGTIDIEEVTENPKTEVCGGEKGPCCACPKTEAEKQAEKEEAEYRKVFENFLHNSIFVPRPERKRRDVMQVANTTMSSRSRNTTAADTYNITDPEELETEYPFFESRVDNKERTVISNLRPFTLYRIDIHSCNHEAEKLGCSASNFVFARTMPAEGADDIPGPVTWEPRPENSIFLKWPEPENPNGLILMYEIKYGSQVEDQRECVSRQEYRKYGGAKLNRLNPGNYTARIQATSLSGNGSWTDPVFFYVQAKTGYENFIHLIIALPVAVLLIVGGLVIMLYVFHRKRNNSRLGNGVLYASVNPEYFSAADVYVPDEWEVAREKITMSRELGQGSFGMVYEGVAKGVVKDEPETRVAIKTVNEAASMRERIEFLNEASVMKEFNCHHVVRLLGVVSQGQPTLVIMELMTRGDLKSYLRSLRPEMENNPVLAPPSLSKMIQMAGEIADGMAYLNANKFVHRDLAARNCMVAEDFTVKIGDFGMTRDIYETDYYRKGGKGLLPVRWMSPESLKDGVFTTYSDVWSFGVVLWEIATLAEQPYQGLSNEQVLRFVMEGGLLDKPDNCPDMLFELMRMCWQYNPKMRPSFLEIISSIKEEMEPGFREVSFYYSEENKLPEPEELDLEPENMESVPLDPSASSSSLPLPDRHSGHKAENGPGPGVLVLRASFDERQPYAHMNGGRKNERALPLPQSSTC
T2 sequence (P06213 28-1382): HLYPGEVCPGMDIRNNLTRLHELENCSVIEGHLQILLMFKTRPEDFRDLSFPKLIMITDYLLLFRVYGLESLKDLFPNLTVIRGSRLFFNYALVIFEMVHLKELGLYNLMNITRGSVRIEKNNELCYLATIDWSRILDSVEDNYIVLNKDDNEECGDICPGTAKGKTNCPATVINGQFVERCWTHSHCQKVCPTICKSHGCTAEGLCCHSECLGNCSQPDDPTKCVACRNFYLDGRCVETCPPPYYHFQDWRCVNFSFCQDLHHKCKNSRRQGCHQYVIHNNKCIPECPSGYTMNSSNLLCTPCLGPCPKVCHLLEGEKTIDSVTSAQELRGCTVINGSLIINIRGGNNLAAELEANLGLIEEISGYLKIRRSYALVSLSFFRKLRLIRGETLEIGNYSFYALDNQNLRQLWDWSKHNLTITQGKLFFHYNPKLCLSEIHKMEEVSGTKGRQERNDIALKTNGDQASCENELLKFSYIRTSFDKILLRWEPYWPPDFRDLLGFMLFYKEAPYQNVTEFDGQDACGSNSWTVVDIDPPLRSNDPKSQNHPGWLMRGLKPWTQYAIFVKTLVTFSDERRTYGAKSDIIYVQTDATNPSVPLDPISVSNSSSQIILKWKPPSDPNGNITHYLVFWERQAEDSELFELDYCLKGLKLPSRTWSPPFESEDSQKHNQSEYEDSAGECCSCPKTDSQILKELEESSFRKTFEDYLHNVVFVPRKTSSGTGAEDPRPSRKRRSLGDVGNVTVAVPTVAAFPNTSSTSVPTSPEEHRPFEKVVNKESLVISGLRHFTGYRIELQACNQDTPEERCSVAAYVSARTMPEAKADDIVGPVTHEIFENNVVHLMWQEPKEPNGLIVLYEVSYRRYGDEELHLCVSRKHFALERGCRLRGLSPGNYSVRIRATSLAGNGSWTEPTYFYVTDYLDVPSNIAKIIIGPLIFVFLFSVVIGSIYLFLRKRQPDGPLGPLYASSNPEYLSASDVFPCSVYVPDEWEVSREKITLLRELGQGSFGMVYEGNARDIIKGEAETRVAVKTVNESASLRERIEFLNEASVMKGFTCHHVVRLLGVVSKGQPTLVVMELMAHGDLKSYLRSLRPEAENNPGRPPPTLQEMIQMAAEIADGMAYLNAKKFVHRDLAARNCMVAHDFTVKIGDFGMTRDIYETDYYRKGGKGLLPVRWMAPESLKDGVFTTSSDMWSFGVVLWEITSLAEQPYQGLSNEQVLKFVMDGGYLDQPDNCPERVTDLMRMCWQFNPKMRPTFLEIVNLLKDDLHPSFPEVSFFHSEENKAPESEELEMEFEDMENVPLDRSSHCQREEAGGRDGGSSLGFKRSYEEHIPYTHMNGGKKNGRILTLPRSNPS
Sequence of ABL1 (P00519 whole entry): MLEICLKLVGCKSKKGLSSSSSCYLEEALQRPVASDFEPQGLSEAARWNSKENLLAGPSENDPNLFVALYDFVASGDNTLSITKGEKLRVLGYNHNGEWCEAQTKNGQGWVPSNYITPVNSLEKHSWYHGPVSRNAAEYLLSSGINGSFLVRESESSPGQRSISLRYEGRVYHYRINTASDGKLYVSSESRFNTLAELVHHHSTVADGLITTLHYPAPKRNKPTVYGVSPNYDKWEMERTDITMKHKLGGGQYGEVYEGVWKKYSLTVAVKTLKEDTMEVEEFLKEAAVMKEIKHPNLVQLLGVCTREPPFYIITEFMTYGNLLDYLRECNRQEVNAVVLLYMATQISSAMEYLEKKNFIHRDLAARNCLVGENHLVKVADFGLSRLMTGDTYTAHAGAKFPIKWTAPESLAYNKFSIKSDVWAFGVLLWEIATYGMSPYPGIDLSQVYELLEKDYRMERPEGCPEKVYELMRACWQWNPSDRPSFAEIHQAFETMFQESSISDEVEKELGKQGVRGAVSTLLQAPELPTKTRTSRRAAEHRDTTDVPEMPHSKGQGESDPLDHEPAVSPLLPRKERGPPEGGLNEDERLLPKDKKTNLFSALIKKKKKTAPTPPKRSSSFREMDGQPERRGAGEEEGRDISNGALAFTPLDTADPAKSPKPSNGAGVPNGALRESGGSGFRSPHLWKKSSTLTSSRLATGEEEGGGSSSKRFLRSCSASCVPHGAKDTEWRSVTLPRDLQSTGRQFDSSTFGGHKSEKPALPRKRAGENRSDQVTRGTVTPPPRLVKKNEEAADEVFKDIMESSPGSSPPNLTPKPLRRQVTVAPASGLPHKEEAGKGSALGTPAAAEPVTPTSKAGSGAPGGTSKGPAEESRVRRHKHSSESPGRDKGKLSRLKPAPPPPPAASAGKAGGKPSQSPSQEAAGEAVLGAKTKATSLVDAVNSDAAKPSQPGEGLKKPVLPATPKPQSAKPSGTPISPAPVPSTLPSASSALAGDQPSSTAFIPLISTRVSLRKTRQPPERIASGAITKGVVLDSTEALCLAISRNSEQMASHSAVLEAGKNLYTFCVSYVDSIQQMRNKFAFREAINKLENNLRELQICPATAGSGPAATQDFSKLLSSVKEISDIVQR
Sequence of ABL2/ARG (P42684 whole entry): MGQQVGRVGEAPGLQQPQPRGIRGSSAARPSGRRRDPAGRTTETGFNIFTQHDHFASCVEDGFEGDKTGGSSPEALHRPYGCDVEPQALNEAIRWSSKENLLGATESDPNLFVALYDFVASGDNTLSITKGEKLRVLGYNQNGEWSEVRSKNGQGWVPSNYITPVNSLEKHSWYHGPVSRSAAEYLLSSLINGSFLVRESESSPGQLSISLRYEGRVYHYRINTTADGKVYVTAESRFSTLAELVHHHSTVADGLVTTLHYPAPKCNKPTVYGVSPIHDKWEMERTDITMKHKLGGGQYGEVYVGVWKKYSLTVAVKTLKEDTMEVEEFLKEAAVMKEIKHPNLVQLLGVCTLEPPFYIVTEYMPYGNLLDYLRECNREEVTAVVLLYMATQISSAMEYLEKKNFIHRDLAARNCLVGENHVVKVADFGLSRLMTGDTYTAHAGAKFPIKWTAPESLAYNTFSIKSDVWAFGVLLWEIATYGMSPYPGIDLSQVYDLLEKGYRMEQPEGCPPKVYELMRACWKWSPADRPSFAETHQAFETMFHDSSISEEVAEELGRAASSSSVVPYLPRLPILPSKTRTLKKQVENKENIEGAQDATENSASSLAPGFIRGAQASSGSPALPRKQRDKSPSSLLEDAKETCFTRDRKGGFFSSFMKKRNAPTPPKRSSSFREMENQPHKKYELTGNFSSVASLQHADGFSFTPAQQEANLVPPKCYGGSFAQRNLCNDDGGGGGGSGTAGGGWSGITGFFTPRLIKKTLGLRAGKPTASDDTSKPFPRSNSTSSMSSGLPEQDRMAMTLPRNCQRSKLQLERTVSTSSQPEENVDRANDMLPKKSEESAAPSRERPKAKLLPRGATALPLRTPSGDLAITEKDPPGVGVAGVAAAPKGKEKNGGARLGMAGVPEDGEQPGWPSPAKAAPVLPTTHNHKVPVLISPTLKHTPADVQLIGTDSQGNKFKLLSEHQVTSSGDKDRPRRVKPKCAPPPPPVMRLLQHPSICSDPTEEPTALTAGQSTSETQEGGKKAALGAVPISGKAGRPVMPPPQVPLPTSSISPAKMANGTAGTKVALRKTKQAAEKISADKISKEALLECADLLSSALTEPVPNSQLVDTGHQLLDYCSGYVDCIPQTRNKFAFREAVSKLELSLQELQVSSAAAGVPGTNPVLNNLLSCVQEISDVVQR

Consider `CCN(C(=O)[C@@H]1CCCN1c1nc2c(c(Nc3cc(C(C)(C)C)[nH]n3)n1)CCC2)c1nccs1` [144b, (S)-1-(4-((5-(tert-butyl)-1 H-pyrazol-3-yl)amino)-6,7-dihydro-5H-cyclopenta[d]pyrimidin-2-yl)-N-ethyl-N-(thiazol-2-yl)pyrrolidine-2-carboxamide], for which the IC50 in assay [1] was 10300 nM; in assay [2], 5960 nM; in assay [3], > 1000 nM; in assay [4] it was > 1000 nM; in assay [5], > 1000 nM; in assay [6], > 1000 nM.

In the case of `CCC(=O)N1CCN(C(=O)[C@H]2CCCN2c2nc3c(c(Nc4cc(C5CCCC5)[nH]n4)n2)CCC3)CC1` [143a, 1-(4-((4-((5-cyclopentyl-1H-pyrazol-3-yl)amino)-6,7-dihydro-5H-cyclopenta[d]pyrimidin-2-yl)-D-prolyl)piperazin-1-yl)propan-1-one], the IC50 in assay [1] was 740 nM; in assay [2], 650 nM; in assay [3] it was 13.9 nM; in assay [4], > 1000 nM; in assay [5], 398 nM; in assay [6] it was 52.2 nM.

For the molecule `CCN(C(=O)[C@@H]1CCCN1c1nc2c(c(Nc3cc(C(C)C)[nH]n3)n1)CCC2)c1nccs1` [145b, (S)—N-ethyl-1-(4-((5-isopropyl-1H-pyrazol-3-yl)amino)-6,7-dihydro-5H-cyclopenta[d]pyrimidin-2-yl)-N-(thiazol-2-yl)pyrrolidine-2-carboxamide], the IC50 in assay [1] worked out at 470 nM; in assay [2], 670 nM; in assay [3], 155 nM.

`CCC(=O)N1CCN(C(=O)[C@@H]2CCCN2c2nc3c(c(Nc4cc(C5CCCC5)[nH]n4)n2)CCC3)CC1` [143b, (S)-1-(4-((4-((5-cyclopentyl-1H-pyrazol-3-yl)amino)-6,7-dihydro-5H-cyclopenta[d]pyrimidin-2-yl)prolyl)piperazin-1-yl)propan-1-one]: the IC50 in assay [1] was > 30000 nM; in assay [2], 17200 nM; in assay [3], 58 nM; in assay [4], > 1000 nM; in assay [5], > 1000 nM; in assay [6], > 1000 nM.

For `CC(C)(C)c1cc(Nc2nc(N3CCC[C@@H]3C(=O)N3CCC(F)(F)CC3)nc3c2CCC3)n[nH]1` [142a, (R)-(1-(4-((5-(tert-butyl)-1H-pyrazol-3-yl)amino)-6,7-dihydro-5H-cyclopenta[d]pyrimidin-2-yl)pyrrolidin-2-yl)(4,4-difluoropiperidin-1-yl)methanone], the IC50 in assay [1] was 4850 nM; in assay [2], 2940 nM; in assay [3], > 1000 nM; in assay [4], > 1000 nM; in assay [5], > 1000 nM; in assay [6] it was > 1000 nM.

On to `CC(C)(C)c1cc(Nc2nc(N3CCC[C@H]3C(=O)N3CCC(F)(F)CC3)nc3c2CCC3)n[nH]1` [142b, (S)-(1-(4-((5-(tert-butyl)-1H-pyrazol-3-yl)amino)-6,7-dihydro-5H-cyclopenta[d]pyrimidin-2-yl)pyrrolidin-2-yl)(4,4-difluoropiperidin-1-yl)methanone], for which the IC50 is > 10000 nM in assay [1]; 11600 nM in assay [2]; > 1000 nM in assay [3]; > 1000 nM in assay [4]; > 1000 nM in assay [5]; > 1000 nM in assay [6].

Regarding `CC(C)c1cc(Nc2nc(N3CCC[C@H]3C(=O)N(C)c3nccs3)nc3c2CCC3)n[nH]1` [68b, (S)-1-(4-((5-isopropyl-1H-pyrazol-3-yl)amino)-6,7-dihydro-5H-cyclopenta[d]pyrimidin-2-yl)-N-methyl-N-(thiazol-2-yl)pyrrolidine-2-carboxamide], the IC50 in assay [1] stood at 243 nM; in assay [2], 364 nM; in assay [3], 112 nM; in assay [4], 316 nM; in assay [5] it was 41 nM; in assay [6] it was 4.41 nM. In addition, the inhibition at 1 µM in assay [1] (compound 1 μM) is 84%; in assay [2] (compound 1 μM), 77%.

As to `CC1(C(=O)N2CCC(F)(F)CC2)CCCN1c1nc2c(c(Nc3cc(C4CCCC4)[nH]n3)n1)CCC2` (racemic) [compound 146, (1-(4-((5-cyclopentyl-1H-pyrazol-3-yl)amino)-6,7-dihydro-5H-cyclopenta[d]pyrimidin-2-yl)-2-methylpyrrolidin-2-yl)(4,4-difluoropiperidin-1-yl)methanone], the half-inhibitory concentration (IC50) in assay [1] is > 30000 nM; in assay [2], > 30000 nM; in assay [3], 798 nM.
